The values below come from patent US8268862B2, “Sirtuin modulating compounds” (Sirtris Pharmaceuticals, Inc., priority 2007, dated 2012).

The structures appear in SMILES notation. Where only a bound is given, the exact number is not on record here.

The target in this assay is T1, SIRT1 (Homo sapiens, UniProt Q96EB6).
T1 sequence (Q96EB6 1-747): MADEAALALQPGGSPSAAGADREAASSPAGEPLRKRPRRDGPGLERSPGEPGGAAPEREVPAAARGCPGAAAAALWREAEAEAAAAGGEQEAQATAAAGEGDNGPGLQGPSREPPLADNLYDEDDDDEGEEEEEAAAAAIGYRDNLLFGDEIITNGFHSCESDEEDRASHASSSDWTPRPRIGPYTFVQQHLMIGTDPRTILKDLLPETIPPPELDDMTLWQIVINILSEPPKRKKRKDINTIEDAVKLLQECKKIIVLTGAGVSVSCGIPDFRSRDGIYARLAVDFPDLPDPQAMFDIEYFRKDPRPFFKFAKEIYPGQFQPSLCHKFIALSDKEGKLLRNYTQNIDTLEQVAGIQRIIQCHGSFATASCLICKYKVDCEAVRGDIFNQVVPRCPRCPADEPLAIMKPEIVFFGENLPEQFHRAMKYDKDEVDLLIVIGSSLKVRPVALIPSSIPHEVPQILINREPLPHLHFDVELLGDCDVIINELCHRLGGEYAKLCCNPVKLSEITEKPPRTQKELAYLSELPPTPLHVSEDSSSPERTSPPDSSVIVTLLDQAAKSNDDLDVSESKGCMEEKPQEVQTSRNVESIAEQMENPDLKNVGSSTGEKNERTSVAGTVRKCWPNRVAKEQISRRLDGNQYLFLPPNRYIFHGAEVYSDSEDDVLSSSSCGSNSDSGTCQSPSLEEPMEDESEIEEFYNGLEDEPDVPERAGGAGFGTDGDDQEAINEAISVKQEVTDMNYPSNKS
In words: mass spectrometry based SIRT1 deacetylation assay (activation). In kind it is biochemical. Conditions: 0.5 μM peptide substrate, 120 μM βNAD+, 10 nM SIRT1, 25 min at 25° C.; for EC1.5 (concentration of test compound that results in 150% activation of SIRT1): NA = not active in the assay; for Emax: read-out: % FOLD ACT. (percent maximum fold activation of SIRT1).

As to `COCCN1CCN(Cc2cnc3sc(-c4ccccc4NC(=O)c4cccc(-c5cc(F)ccc5F)n4)nc3c2)CC1` [Compound 145], the “EC1.5 (concentration of test compound that results in 150% activation of SIRT1)” value amounted to 86 NM and the Emax stood at 500%.
For the compound `COCCN1CCN(Cc2cnc3sc(-c4ccccc4NC(=O)c4cccc(-c5cccc(F)c5F)n4)nc3c2)CC1` [Compound 146], the “EC1.5 (concentration of test compound that results in 150% activation of SIRT1)” value is listed as 127 NM and the Emax was determined as 500%.
Taken in the same sequence, the figures for `[2H]c1c([2H])c([2H])c(-c2cccc(C(=O)Nc3ccccc3-c3nc4cc(CN5CCCC5)cnc4s3)c2)c([2H])c1[2H]` [Compound 147] were 845 NM and 224%.
Taken in the same sequence, the figures for `COCCN1CCN(Cc2cnc3sc(-c4ccccc4NC(=O)c4cccc(-c5cccc(C#N)c5)n4)nc3c2)CC1` [Compound 148] were 40 NM and 500%.
On to `O=C(Nc1ccccc1-c1nc2cc(CN3CCCC3=O)cnc2s1)c1cccc(-c2ccccc2)c1` [Compound 149], for which the “EC1.5 (concentration of test compound that results in 150% activation of SIRT1)” value is reported as 557 NM and the Emax was found to be 216%.
Turning to `Cn1cc(-c2ccccc2)cc1C(=O)Nc1ccccc1-c1nc2cc(CN3CCOCC3)cnc2s1` [Compound 150], the “EC1.5 (concentration of test compound that results in 150% activation of SIRT1)” value was determined as 67 NM and the Emax was determined as 267%.
As for `Cn1cc(-c2ccccc2)cc1C(=O)Nc1ccccc1-c1nc2cc(CN3CCCC3)cnc2s1` [Compound 151], the “EC1.5 (concentration of test compound that results in 150% activation of SIRT1)” value is 591 NM and the Emax was determined as 170%.
As for `COCCN1CCN(Cc2cnc3sc(-c4ccccc4NC(=O)c4cc(-c5ccccc5)n[nH]4)nc3c2)CC1` [Compound 152], the “EC1.5 (concentration of test compound that results in 150% activation of SIRT1)” value came out at 321 NM and the Emax was > 500%.
For `O=C(Nc1ccccc1-c1nc2cc(CN3CCCC3)cnc2s1)c1cc(-c2ccccc2)n[nH]1` [Compound 153], the “EC1.5 (concentration of test compound that results in 150% activation of SIRT1)” value is listed as 829 NM and the Emax was found to be 226%.
`O=C(Nc1ccccc1-c1nc2cc(CN3CCCC3)cnc2s1)c1ccn(-c2ccccc2)n1` [Compound 154]: the “EC1.5 (concentration of test compound that results in 150% activation of SIRT1)” value is reported as 428 NM and the Emax came to 277%.
As to `COCCN1CCN(Cc2cnc3sc(-c4ccccc4NC(=O)c4ccn(-c5ccccc5)n4)nc3c2)CC1` [Compound 155], the “EC1.5 (concentration of test compound that results in 150% activation of SIRT1)” value came to 141 NM and the Emax came to 364%.
In the case of `O=C(Nc1ccccc1-c1nc2cc(CN3CCOCC3)cnc2s1)c1ccn(-c2ccccc2)n1` [Compound 156], the “EC1.5 (concentration of test compound that results in 150% activation of SIRT1)” value was determined as 674 NM and the Emax was found to be 443%.
